Substitutions are numbered along the chain they refer to. Like-named read-outs stand apart in the source and are kept apart here.
Legend:
[1] = target: T1, IbpA-Fic2 (IbpA-2) AMPylation of Cdc42 (Histophilus somni, UniProt Q06277); test: Radioactive in-gel AMPylation assay with WT IbpA-Fic2, Cdc42 and α-32P-ATP (cross reactivity); type: biochemical; settings: 10 μM compound, versus DMSO control
T1 construct: a construct solely containing the second of the two domains, IbpA-2; made in house
Description: 1 μM of HYPE (final concentration) and (where specified) 5 μM of T229A BiP (final concentration) were preincubated with 10 μM DMSO-dissolved compound (final concentration) or equivalent volume of 100% DMSO at room temperature for 10 min in HTS Buffer. Reactions were run for 10 min at 30° C. and began with the addition of 0.01 μCi/μL α-32P-ATP (final concentration). All reactions were performed according to our previously described protocol for in vitro radioactive AMPylation assays19. Where specified, 5 μM of T229A BiP (final concentration) was added to reactions before the addition of compound.
All bacterial Fic specificity assays were conducted with 1 μM GST-tagged IbpA-Fic2, 5 μM GST-tagged Q61L Cdc42, and 0.01 μCi/μL α-32P-ATP (all final concentrations). All other reaction parameters were kept as per HYPE radiolabeled in-gel AMPylation assays.

HYPE = settings: pilot screen of nearly 10,000 compounds; cited from earlier work
HeLa cells = test: MTT cell viability assay, HeLa; type: cell-based, human; settings: HeLa, 48 hr
Description: The cell lines were procured from ATCC (American Type Culture Collection) and cultured in DMEM (Dulbecco's Modified Eagle Medium) supplemented with 10% FBS (fetal bovine serum) without antibiotics. Cells were grown and maintained in a humidified incubator at 37° C. with 5% CO2. For the MTT assay, cells were trypsinized and harvested at ˜80-90% confluency and seeded in 96 well plates at a density of 1×10^4 cells per well. The seeded cells were incubated overnight and treated with 1 μM, 3 μM, 5 μM, 7 μM, 10 μM, 20 μM, 30 μM or 50 μM (final concentration) of DMSO-dissolved compound for 48 hr. To rule out vehicle induced toxicity, only 0.5% of final DMSO concentration was added to the cells. Post-incubation, the compound treatment was removed and replaced with 0.5 mg/ml (final concentration) of freshly prepared MTT solution. After incubating for 3.5 hr at 37° C., 5% CO2 humidified incubator, MTT was carefully removed without aspirating the formazan crystals and replaced with equivalent volume of DMSO to dissolve the formazan crystals. The plates were then read using a multi-plate reader at 570 nm. The absorbance was recorded and % viability was calculated according to the following equation:
[formula] • where, Abt is the absorbance of compound treated cells and Abc is the absorbance of control cells.

WT HYPE = target: T2, WT HYPE (Homo sapiens, UniProt Q9BVA6); test: Fluorescence in-gel autoAMPylation assay with WT HYPE and Fl-ATP; type: biochemical; settings: 10 μM compound, versus DMSO control
T2 construct: Δ102 (aa 103-458) HYPE constructs (WT, E234G, and E234G/H363A); His6-SUMO (cleaved yes); made in house; host or cells: E. coli BL21-DE3-RILP
T2 sequence (Q9BVA6 103-458): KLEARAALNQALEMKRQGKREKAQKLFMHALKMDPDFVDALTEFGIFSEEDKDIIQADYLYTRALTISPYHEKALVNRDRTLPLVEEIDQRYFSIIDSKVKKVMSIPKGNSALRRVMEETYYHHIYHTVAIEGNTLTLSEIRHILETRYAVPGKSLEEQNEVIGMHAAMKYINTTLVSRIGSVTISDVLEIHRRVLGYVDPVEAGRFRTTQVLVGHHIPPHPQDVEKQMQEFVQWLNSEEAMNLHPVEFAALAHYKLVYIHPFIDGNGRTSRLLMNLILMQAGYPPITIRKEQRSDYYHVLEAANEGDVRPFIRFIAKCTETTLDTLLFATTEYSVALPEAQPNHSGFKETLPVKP
Description: 1 μM of WT HYPE (final concentration) was preincubated with 10 μM DMSO-dissolved compound (final concentration) or equivalent volume of 100% DMSO at room temperature for 10 min. Reactions were run for 20 hr at 30° C. in the dark and began with the addition of 1 μM Fl-ATP (final concentration). Alternatively, E234G HYPE AMPylation reactions were run at 10 min due to its hyperactivity. All other parameters were held constant. All reactions were performed HTS Buffer (50 mM HEPES, 1 mM MgCl2, 0.1% Triton X-100, pH 7.50). All reactions were quenched with 4×SDS loading dye, boiled for 5 min at 95° C., and samples were run on 12% SDS-PAGE gels. Gels were imaged on a Typhoon 9500 FLA imager (General Electric) for fluorescence at 473 nm. Imaged gels were then stained with Coomassie Brilliant Blue, destained, and imaged for protein concentration. Where specified, 5 μM of T229A BiP (final concentration) was added to reactions before the addition of compound.

E234G HYPE = target: T3, E234G HYPE (Homo sapiens, UniProt Q9BVA6, E234G); test: Fluorescence polarization (FP) microplate autoAMPylation assay with Fl-ATP, E234G HYPE inhibitor HTS, cherrypick validation and concentration-response; type: biochemical; settings: for % Inh. Cherry-pick / % Inh. HTS / inhibition at 10 µM: 10 μM compound; for Mean % Inh.: mean of HTS and cherrypick
T3 construct: Δ102 (aa 103-458) HYPE constructs (WT, E234G, and E234G/H363A); His6-SUMO (cleaved yes); made in house; host or cells: E. coli BL21-DE3-RILP
T3 sequence (Q9BVA6 103-458 E234G): T2 sequence (Q9BVA6 103-458) with E132G
Description: Buffer optimization experiments were performed by incubating 0.4 μM of Δ102 HYPE enzyme with 25 nM Fl-ATP (final concentrations) in HTS buffer (50 mM HEPES (pH 7.5), 1 mM MgCl2, 0.1% Triton X-100, 1% DMSO) in the dark at room temperature for 10 min in 384-well black bottom, black wall microplates (20 μL reaction volume). Where specified, 1 mM MgCl2 was replaced with an equivalent concentration of MnCl2, or 0.1% Triton X-100 was replaced with 0.05% or 0.01% Trion X-100. Microplates were snap centrifuged at 1000 g for 10 sec. Microplates were loaded onto a BioTek BioStack NEO2 plate-reader and assessed for fluorescence polarization with 485/530 nm filters and a 55/50 gain adjustment.
A Multidrop 384 reagent dispenser (ThermoFisher) was used to add 0.4 μM HYPE, then 25 nM Fl-ATP (final concentrations) to 384-well black/black microplates (20 μL reaction volume). Both enzyme and nucleotide were dissolved in HTS Buffer. AMPylation Reactions were incubated for 10 min at room temperature in the dark. Microplates were snap centrifuged at 1000 g for 10 sec, then transferred to BioTek BioStack NEO2 plate-reader. Reactions were assessed for fluorescence polarization with 485/530 nm filters and a 55/50 gain adjustment. Z′, S/B, and CV values were determined by fitting the data to Eq. 1, 2, and 3, respectively,
An Echo Liquid Handler (Labcyte) was used to transfer 200 nL of DMSO-dissolved compounds via acoustic-coupled ejection from 10 mM source plates into 384-well black, flat-bottom, black-walled microplates, for a final compound concentration of 10 μM. Compounds were sourced from the following libraries: DIVERset (Chembridge), CNS-Set (Chembridge). The compounds went into columns 3-22 of each plate, while columns 1, 2, 23, and 24 were reserved for equivalent volume of 100% DMSO controls.
A Multidrop 384 reagent dispenser was used to pipette 0.4 μM of WT HYPE (final concentration) dissolved in HTS Buffer into columns 1-22 of the activator plates, and columns 1 and 2 of the inhibitor plates as positive controls. 0.4 μM of E234G HYPE was similarly added to columns 3-24 of the inhibitor plates, and columns 23 and 24 of the […]. Enzymes were then incubated with either compounds or DMSO for 10 min at room temperature.
A Multidrop 384 reagent dispenser was used to pipette 25 nM of Fl-ATP (final concentration) into all wells of each plate, giving a final reaction volume of 20 μL. Plates were then incubated for 10 min at room temperature in the dark, followed by a snap centrifugation at 1000 g for 10 sec. Microplates were loaded onto BioTek BioStack stacker and read in succession for fluorescence polarization with 485/530 nm filters and a 55/50 gain adjustment. Fluorescence polarization values were converted to fractional activation (FA) or fractional inhibition FI) values according to Eq. (3) or (4), respectively,
[formula] [formula] • where μp and μn are the means of the positive (E234G HYPE) and negative (WT HYPE) controls, respectively; and x is the measured value of fluorescence polarization.
Microplate “cherrypicking” validations were performed as described above.
A Multidrop 384 reagent dispenser was used to pipette 0.4 μM of WT or E234G HYPE (final concentrations) dissolved in HTS Buffer into designated microplate wells. 10 μM of DMSO-dissolved compounds (final concentrations) or equivalent volume of 100% DMSO were manually pipetted into their specified wells. Enzymes were incubated with compounds or DMSO for 10 min at room temperature. Reagent dispenser was then used to pipette 25 nM of Fl-ATP (final concentration) into each well, followed by a 10 min incubation at room temperature in the dark. Plates were snap centrifuged at 1000 g for 10 sec, then transferred to BioTek BioStack NEO2 plate-reader. Reactions were assessed for fluorescence polarization with 485/530 nm filters and a 55/50 gain adjustment. EC50 and IC50 values were determined by fitting polarization values to Eq. (5) and (6), respectively, […]

[2] = cherrypick validation, same FP assay
[3] = initial HTS, normalized to WT and E234G HYPE DMSO controls
[4] = cherrypick validation, same FP assay, read-out: % Inh. Cherry-pick
[5] = initial HTS, normalized to WT and E234G HYPE DMSO controls, read-out: % Inh. HTS

T1 sequence (Q06277 3640-3777): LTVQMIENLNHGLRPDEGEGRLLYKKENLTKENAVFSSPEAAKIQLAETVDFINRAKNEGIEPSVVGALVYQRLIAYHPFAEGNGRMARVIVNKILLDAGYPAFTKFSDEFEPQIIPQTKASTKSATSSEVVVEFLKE

SMILES	Mean % Inh. (E234G HYPE) [%]	inhibition at 10 µM (E234G HYPE; [4]) [%]	inhibition at 10 µM (E234G HYPE; [5]) [%]	other results
Clc1ccc(C(c2ccc(Cl)cc2)n2cc[n+](CC(OCc3ccc(Cl)cc3Cl)c3ccc(Cl)cc3Cl)c2)cc1 (stereo not shown) [Compound A1, calmidazolium]	–	–	–	effect on IbpA-2 AMPylation of Cdc42 [1]: lack of AMPylation enhancement; effect on HYPE-mediated AMPylation in vitro (HYPE): enhance; concentration impacting cell viability (HeLa cells): ≤ 1000 nM; activation of WT HYPE autoAMPylation in gel (WT HYPE): bioactive above our DMSO control
CCCCn1ccnc1C1CCCN(Cc2ccccn2)C1 (stereo not shown) [Compound I2.1]	31.1	–	–	% Inh. Cherry-pick (E234G HYPE; [2]): 29.7%; % Inh. HTS (E234G HYPE; [3]): 32.5%
CN(Cc1ccccn1)C(C(=O)O)c1ccc2c(c1)OCO2 (stereo not shown) [Compound I2.2]	21.5	22.7	20.3	–
CN(Cc1cccc2cnccc12)C(=O)c1cnc(-c2ccccn2)nc1O [Compound I2.3]	32.9	–	–	% Inh. Cherry-pick (E234G HYPE; [2]): 30.7%; % Inh. HTS (E234G HYPE; [3]): 35.0%
CCc1ccc(N2CC(c3noc(-c4ccc(C#N)cc4)n3)CC2=O)cc1 (stereo not shown) [Compound I2.9]	27.5	27.8	27.2	–
Oc1ccc(CN2CCCCC2)c2cccnc12 [Compound I2.11]	22.3	–	–	% Inh. Cherry-pick (E234G HYPE; [2]): 24.6%; % Inh. HTS (E234G HYPE; [3]): 19.9%

Further lines, with some results ahead:

Mean % Inh. (E234G HYPE) [%]	inhibition at 10 µM (E234G HYPE; [4]) [%]	inhibition at 10 µM (E234G HYPE; [5]) [%]	SMILES	other results
29.4	31	27.8	CCCc1cc(O)n(-c2nc3ccccc3[nH]2)n1 [Compound I2.4]	–
28.2	32.9	23.5	Cc1nn(-c2nc3ccccc3[nH]2)c2c1C(c1ccc(F)cc1F)CC(=O)N2 (stereo not shown) [Compound I2.5]	–
31.2	29.7	32.7	Cc1nn(-c2nc3ccccc3[nH]2)c2c1C(c1cc(Br)ccc1F)CC(=O)N2 (stereo not shown) [Compound I2.6]	–
27.6	34.2	20.9	O=C1Nc2ccc(Br)cc2C12NN=C(c1ccccc1)S2 (stereo not shown) [Compound I2.7]	–
30.4	33.6	27.1	Oc1cc(-c2ccc(F)cc2)nn1-c1nc2ccccc2[nH]1 [Compound I2.12]	–
